Source: US12077503B2, “Substituted cyclic amides and their use as herbicides” (FMC CORPORATION, priority 2015, dated 2024)

Tests used:
Assay type in all cases: in vivo
[1] = system: nutsedge, yellow (yellow nutsedge, Cyperus esculentus); assay: Test C postemergence; details: scale 0 to 100, 0 no effect, 100 complete control
In short: (§1)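 Greenhouse test: seeds in a loam and sand blend treated preemergence, or seedlings at the 1- to 4-leaf stage (2 to 18 cm) in a peat, vermiculite and limestone mix treated postemergence, with test chemicals in a surfactant-containing non-phytotoxic solvent. Scored by eye at 13 to 15 d relative to controls, 0 (no effect) to 100 (complete control).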

[2] = system: lambsquarters (Chenopodium album); assay: Test C postemergence; details: scale 0 to 100, 0 no effect, 100 complete control
In short: as §1

[3] = system: wheat (winter wheat, Triticum aestivum); assay: Test C postemergence; details: scale 0 to 100, 0 no effect, 100 complete control
In short: as §1

[4] = system: barnyardgrass (Echinochloa crus-galli); assay: Test C postemergence; details: scale 0 to 100, 0 no effect, 100 complete control
In short: as §1

[5] = system: ryegrass, Italian (Italian ryegrass, Lolium multiflorum); assay: Test C postemergence; details: scale 0 to 100, 0 no effect, 100 complete control
In short: as §1

[6] = system: ragweed (common ragweed, Ambrosia elatior); assay: Test C postemergence; details: scale 0 to 100, 0 no effect, 100 complete control
In short: as §1

[7] = system: morningglory (Ipomoea coccinea); assay: Test C postemergence; details: scale 0 to 100, 0 no effect, 100 complete control
In short: as §1

[8] = system: soybean (Glycine max); assay: Test C postemergence; details: scale 0 to 100, 0 no effect, 100 complete control
In short: as §1

[9] = system: corn (Zea mays); assay: Test C postemergence; details: scale 0 to 100, 0 no effect, 100 complete control
In short: as §1

[10] = system: Kochia (Kochia scoparia); assay: Test C postemergence; details: scale 0 to 100, 0 no effect, 100 complete control
In short: as §1

[11] = system: waterhemp (common waterhemp, Amaranthus rudis); assay: Test C postemergence; details: scale 0 to 100, 0 no effect, 100 complete control
In short: as §1

[12] = system: johnsongrass (Sorghum halepense); assay: Test C postemergence; details: scale 0 to 100, 0 no effect, 100 complete control
In short: as §1

[13] = system: oat, wild (wild oat, Avena fatua); assay: Test C postemergence; details: scale 0 to 100, 0 no effect, 100 complete control
In short: as §1

[14] = system: velvetleaf (Abutilon theophrasti); assay: Test C postemergence; details: scale 0 to 100, 0 no effect, 100 complete control
In short: as §1

[15] = system: foxtail, giant (giant foxtail, Setaria faberii); assay: Test C postemergence; details: scale 0 to 100, 0 no effect, 100 complete control
In short: as §1

[16] = system: chickweed (common chickweed, Stellaria media); assay: Test C postemergence; details: scale 0 to 100, 0 no effect, 100 complete control
In short: as §1

[17] = system: barnyardgrass (Echinochloa crus-galli); assay: Test G Pre-Emergence Protocol; details: evaluated after 13 days
Protocol: (§2) Seeds of corn (Zea mays), giant foxtail (Setaria faberi), barnyardgrass (Echinochloa crus-galli), ivy-leaved morning glory (Ipomoea hederacea), redroot pigweed (Amaranthus retroflexus) and velvetleaf (Abutilon theophrasti) were sown in standard soil in pots. After cultivation for one day under controlled conditions in a glasshouse (at 24/16° C., day/night; 14 hours light; 65% humidity), the plants were sprayed with an aqueous spray solution derived from the formulation of the technical active ingredient in acetone/water (50:50) solution containing 0.5% Tween 20 (polyoxyethylene sorbitan monolaurate, CAS RN 9005-64-5) to give a final dose of 15.625, 62.5 or 250 g/ha of test compound.
(§3) The test plants were then grown on under controlled conditions in a glasshouse (at 24/16° C., day/night; 14 hours light; 65% humidity) and watered twice daily. After 13 days the test was evaluated (100=total damage to plant; 0=no damage to plant). A dash (-) means no test result.

[18] = system: redroot pigweed (Amaranthus retroflexus); assay: Test G Pre-Emergence Protocol; details: evaluated after 13 days
Protocol: as §2, §3

[19] = system: giant foxtail (Setaria faberi); assay: Test G Pre-Emergence Protocol; details: evaluated after 13 days
Protocol: as §2, §3

[20] = 62.5 g ai/ha, 100=total damage to plant, 0=no damage to plant

Structure (SMILES): O=C1NCC(c2ccc3c(c2)OC(F)(F)O3)C1C(=O)Nc1cccc(F)c1F (stereo not shown) [Compound 635]
- Plant response rating, Nutsedge, Yellow ([1]; 31 g ai/ha): 0
- Plant response rating, Nutsedge, Yellow ([1]; 62 g ai/ha): 0
- Plant response rating, Nutsedge, Yellow ([1]; 125 g ai/ha): 0
- Plant response rating, Nutsedge, Yellow ([1]; 250 g ai/ha): 0
- Plant response rating, Lambsquarters ([2]; 31 g ai/ha): 75
- Plant response rating, Lambsquarters ([2]; 62 g ai/ha): 80
- Plant response rating, Lambsquarters ([2]; 125 g ai/ha): 75
- Plant response rating, Lambsquarters ([2]; 250 g ai/ha): 85
- Plant response rating, Wheat ([3]; 31 g ai/ha): 0
- Plant response rating, Wheat ([3]; 62 g ai/ha): 0
- Plant response rating, Wheat ([3]; 125 g ai/ha): 0
- Plant response rating, Wheat ([3]; 250 g ai/ha): 5
- Plant response rating, Barnyardgrass ([4]; 31 g ai/ha): 0
- Plant response rating, Barnyardgrass ([4]; 62 g ai/ha): 10
- Plant response rating, Barnyardgrass ([4]; 125 g ai/ha): 65
- Plant response rating, Barnyardgrass ([4]; 250 g ai/ha): 65
- Plant response rating, Ryegrass, Italian ([5]; 31 g ai/ha): 0
- Plant response rating, Ryegrass, Italian ([5]; 62 g ai/ha): 0
- Plant response rating, Ryegrass, Italian ([5]; 125 g ai/ha): 15
- Plant response rating, Ryegrass, Italian ([5]; 250 g ai/ha): 20
- Plant response rating, Ragweed ([6]; 31 g ai/ha): 25
- Plant response rating, Ragweed ([6]; 62 g ai/ha): 60
- Plant response rating, Ragweed ([6]; 125 g ai/ha): 70
- Plant response rating, Ragweed ([6]; 250 g ai/ha): 80
- Plant response rating, Morningglory ([7]; 31 g ai/ha): 25
- Plant response rating, Morningglory ([7]; 62 g ai/ha): 40
- Plant response rating, Morningglory ([7]; 125 g ai/ha): 45
- Plant response rating, Morningglory ([7]; 250 g ai/ha): 45
- Plant response rating, Soybean ([8]; 31 g ai/ha): 0
- Plant response rating, Soybean ([8]; 62 g ai/ha): 0
- Plant response rating, Soybean ([8]; 125 g ai/ha): 5
- Plant response rating, Soybean ([8]; 250 g ai/ha): 10
- Plant response rating, Corn ([9]; 31 g ai/ha): 0
- Plant response rating, Corn ([9]; 62 g ai/ha): 0
- Plant response rating, Corn ([9]; 125 g ai/ha): 5
- Plant response rating, Corn ([9]; 250 g ai/ha): 40
- Plant response rating, Kochia ([10]; 31 g ai/ha): 40
- Plant response rating, Kochia ([10]; 62 g ai/ha): 20
- Plant response rating, Kochia ([10]; 125 g ai/ha): 50
- Plant response rating, Kochia ([10]; 250 g ai/ha): 60
- Plant response rating, Waterhemp ([11]; 31 g ai/ha): 35
- Plant response rating, Waterhemp ([11]; 62 g ai/ha): 60
- Plant response rating, Waterhemp ([11]; 125 g ai/ha): 55
- Plant response rating, Waterhemp ([11]; 250 g ai/ha): 70
- Plant response rating, Johnsongrass ([12]; 31 g ai/ha): 0
- Plant response rating, Johnsongrass ([12]; 62 g ai/ha): 0
- Plant response rating, Johnsongrass ([12]; 125 g ai/ha): 5
- Plant response rating, Johnsongrass ([12]; 250 g ai/ha): 5
- Plant response rating, Oat, Wild ([13]; 31 g ai/ha): 0
- Plant response rating, Oat, Wild ([13]; 62 g ai/ha): 0
- Plant response rating, Oat, Wild ([13]; 125 g ai/ha): 0
- Plant response rating, Oat, Wild ([13]; 250 g ai/ha): 5
- Plant response rating, Velvetleaf ([14]; 31 g ai/ha): 0
- Plant response rating, Velvetleaf ([14]; 62 g ai/ha): 0
- Plant response rating, Velvetleaf ([14]; 125 g ai/ha): 10
- Plant response rating, Velvetleaf ([14]; 250 g ai/ha): 30
- Plant response rating, Foxtail, Giant ([15]; 31 g ai/ha): 15
- Plant response rating, Foxtail, Giant ([15]; 62 g ai/ha): 30
- Plant response rating, Foxtail, Giant ([15]; 125 g ai/ha): 50
- Plant response rating, Foxtail, Giant ([15]; 250 g ai/ha): 60
- Plant response rating, Chickweed ([16]; 31 g ai/ha): 80
- Plant response rating, Chickweed ([16]; 62 g ai/ha): 85
- Plant response rating, Chickweed ([16]; 125 g ai/ha): 85
- Plant response rating, Chickweed ([16]; 250 g ai/ha): 90

Structure (SMILES): CN1C[C@H](c2cccc(C(F)(F)F)c2)[C@@H](C(=O)Nc2cccnc2F)C1=O [Compound 1397]
- Barnyardgrass damage rating (100=total damage to plant; 0=no damage to plant) ([17]; 250 g ai/ha): 90
- pest or weed control at 15.625 g/ha ([17]; Echinochloa crus-galli, pre-emergence, 312 h, 15.625 g ai/ha, read-out: Barnyard grass damage rating (100=total damage to plant; 0=no damage to plant)): 90%
- pest or weed control at 62.5 g/ha ([17]; Echinochloa crus-galli, pre-emergence, 312 h, 62.5 g ai/ha, 100=total damage to plant, 0=no damage to plant, read-out: plant damage rating, Barnyardgrass): 90%
- Pigweed, Redroot damage rating (100=total damage to plant; 0=no damage to plant) ([18]; 15.625 g ai/ha): 0
- Pigweed, Redroot damage rating (100=total damage to plant; 0=no damage to plant) ([18]; 250 g ai/ha): 80
- pest or weed control at 62.5 g/ha ([18]; Amaranthus retroflexus, pre-emergence, 312 h, 62.5 g ai/ha, 100=total damage to plant, 0=no damage to plant, read-out: plant damage rating, Pigweed, Redroot): 20%
- Foxtail, Giant damage rating (100=total damage to plant; 0=no damage to plant) ([19]; 15.625 g ai/ha): 90
- Foxtail, Giant damage rating (100=total damage to plant; 0=no damage to plant) ([19]; 250 g ai/ha): 90
- pest or weed control at 62.5 g/ha ([19]; Setaria faberi, pre-emergence, 312 h, 62.5 g ai/ha, 100=total damage to plant, 0=no damage to plant, read-out: plant damage rating, Foxtail, Giant): 90%

Structure (SMILES): CN1C[C@H](c2ccc(C(F)(F)F)cc2)[C@@H](C(=O)Nc2cccc(F)n2)C1=O [Compound 1400]
- Barnyardgrass damage rating (100=total damage to plant; 0=no damage to plant) ([17]; 15.625 g ai/ha): 30
- plant damage rating, Barnyardgrass [17, 20]: 80
- Barnyardgrass damage rating (100=total damage to plant; 0=no damage to plant) ([17]; 250 g ai/ha): 80
- Pigweed, Redroot damage rating (100=total damage to plant; 0=no damage to plant) ([18]; 15.625 g ai/ha): 20
- plant damage rating, Pigweed, Redroot [18, 20]: 80
- Pigweed, Redroot damage rating (100=total damage to plant; 0=no damage to plant) ([18]; 250 g ai/ha): 90
- Foxtail, Giant damage rating (100=total damage to plant; 0=no damage to plant) ([19]; 15.625 g ai/ha): 60
- plant damage rating, Foxtail, Giant [19, 20]: 90
- Foxtail, Giant damage rating (100=total damage to plant; 0=no damage to plant) ([19]; 250 g ai/ha): 90
